Data published in patent US20240335431A1, “1-H-PYRROLO[2,3-c]PYRIDINE COMPOUNDS” (Acerta Pharma B.V., priority 2023, published 2024).
Read-outs that look alike come from different tables or passages of the source.

Legend:
[1] = system: MV4;11 cells; assay: Proliferation assay, MV4;11 (CellTiter-Glo, 7 days); type: cell-based, human; conditions: read-out: MV-4-11 IC50
How it was run: (§1)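 Cells seeded at 125 (MOLM-13), 300 (MV4;11), 75 (OCI-AML3) or 200 (HEL) per well were exposed to 3.16-fold compound dilutions (0.1% DMSO) for 7 days at 37° C. Viability by CellTiter-Glo luminescence, normalized to DMSO (100%) and day-0 plate (0%); IC50 from one-site dose-response fit.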

[2] = system: OCI-AML3 cells; assay: Proliferation assay, OCI-AML3 (CellTiter-Glo, 7 days); type: cell-based, human
How it was run: as §1

[3] = system: HEL cells; assay: Proliferation assay, HEL control cell line (CellTiter-Glo, 7 days); type: cell-based, human
How it was run: as §1

[4] = molecular target: hERG (Homo sapiens (Human), UniProt Q12809); assay: hERG assay 2, QPatch II 48X, room temperature; type: cell-based; conditions: hERG DUO cell line, top 200 μM
Description: Experiments were performed on the QPatch II 48X (Sophion Biosciences) high throughput patch clamp platform at room temperature and used single hole Qplates. hERG DUO cell line (BSys) was used. The internal patch clamp solution was KF 60 mM, KCl 70 mM, HEPES 10 mM, EGTA 10 mM, and 5 mM Mg ATP (pH7.2). After sealing and whole cell access was gained the external solution (NaCl 140 mM, KCl 4 mM, HEPES 10 mM, CaCl2 2 mM, MgCl2 1 mM, glucose 5 mM (pH 7.4) was applied twice to establish stable baseline currents. An industry standard +40/−40 mV voltage protocol was applied every 15 seconds. All compounds were tested in a 6-point cumulative assay (final DMSO concentration 0.4-2% depending on stock concentration of compounds). Compounds were dispensed from initial 10 mM or 50 mM DMSO stocks after which DMSO dilutions were undertaken with a top concentration of 200 μM tested. Solvent controls were run in all experiments in line with the DMSO % required. Only wells that passed acceptance criteria for this platform were used in this analysis (500 MegaOhm seal resistance and current size >0.2 nA). Analysis was completed in Prism Graphpad to complete a composite IC50, by plotting % inhibition versus log compound concentration and using a log(inhibitor) vs. response—Variable slope.

[5] = molecular target: T1, muscarinic M2 receptor (Homo sapiens (Human), UniProt P08172); assay: Muscarinic M2 receptor binding assay (assay 1); conditions: [3H]AF-DX 384 2 nM, Cheng Prusoff
How it was run: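 Membrane homogenates (60 μg protein) were incubated with 2 nM [3H]AF-DX 384 for 60 min at 22° C in Tris-HCl pH 7.4 with NaCl, KCl, MgCl2 and EDTA; 1 μM atropine defined nonspecific binding. Filtration and scintillation counting gave percent inhibition of specific binding, with Ki by Cheng-Prusoff.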

[6] = molecular target: T1, muscarinic M2 receptor; assay: Muscarinic M2 receptor functional assay, antagonist effect (assay 2); type: cell-based; conditions: cAMP, 1 μM acetylcholine
Description: Thereafter, the reference agonist acetylcholine and the adenylyl cyclase activator NKH 477 were added at respective final concentrations of 1 μM and 5 μM. For basal control measurements, acetylcholine was omitted from the wells containing 10 μM methoctramine. Following 10 minutes incubation at 37° C., the cells were lysed, and the fluorescence acceptor (D2-labeled cAMP) and fluorescence donor (anti-cAMP antibody labelled with europium cryptate) were added. After 60 minutes at room temperature, the fluorescence transfer was measured at λex=337 nm and λem=620 and 665 nm using a microplate reader (Rubystar, BMG). The cAMP concentration was determined by dividing the signal measured at 665 nm by that measured at 620 nm (ratio). The results were expressed as a percent inhibition of the control response to 1 μM acetylcholine. For test compounds and for standard reference antagonist methoctramine, which is tested in each experiment, assays were run in eight-point concentration response mode and IC50 values determined following non-linear regression curve analysis. Curve analysis was completed using software developed at Cerep (Hill software) and validated by comparison with data generated by the commercial software SigmaPlot®4.0 for Windows® (© 1997 by SPSS Inc.).

Chain of hERG (Q12809 whole entry): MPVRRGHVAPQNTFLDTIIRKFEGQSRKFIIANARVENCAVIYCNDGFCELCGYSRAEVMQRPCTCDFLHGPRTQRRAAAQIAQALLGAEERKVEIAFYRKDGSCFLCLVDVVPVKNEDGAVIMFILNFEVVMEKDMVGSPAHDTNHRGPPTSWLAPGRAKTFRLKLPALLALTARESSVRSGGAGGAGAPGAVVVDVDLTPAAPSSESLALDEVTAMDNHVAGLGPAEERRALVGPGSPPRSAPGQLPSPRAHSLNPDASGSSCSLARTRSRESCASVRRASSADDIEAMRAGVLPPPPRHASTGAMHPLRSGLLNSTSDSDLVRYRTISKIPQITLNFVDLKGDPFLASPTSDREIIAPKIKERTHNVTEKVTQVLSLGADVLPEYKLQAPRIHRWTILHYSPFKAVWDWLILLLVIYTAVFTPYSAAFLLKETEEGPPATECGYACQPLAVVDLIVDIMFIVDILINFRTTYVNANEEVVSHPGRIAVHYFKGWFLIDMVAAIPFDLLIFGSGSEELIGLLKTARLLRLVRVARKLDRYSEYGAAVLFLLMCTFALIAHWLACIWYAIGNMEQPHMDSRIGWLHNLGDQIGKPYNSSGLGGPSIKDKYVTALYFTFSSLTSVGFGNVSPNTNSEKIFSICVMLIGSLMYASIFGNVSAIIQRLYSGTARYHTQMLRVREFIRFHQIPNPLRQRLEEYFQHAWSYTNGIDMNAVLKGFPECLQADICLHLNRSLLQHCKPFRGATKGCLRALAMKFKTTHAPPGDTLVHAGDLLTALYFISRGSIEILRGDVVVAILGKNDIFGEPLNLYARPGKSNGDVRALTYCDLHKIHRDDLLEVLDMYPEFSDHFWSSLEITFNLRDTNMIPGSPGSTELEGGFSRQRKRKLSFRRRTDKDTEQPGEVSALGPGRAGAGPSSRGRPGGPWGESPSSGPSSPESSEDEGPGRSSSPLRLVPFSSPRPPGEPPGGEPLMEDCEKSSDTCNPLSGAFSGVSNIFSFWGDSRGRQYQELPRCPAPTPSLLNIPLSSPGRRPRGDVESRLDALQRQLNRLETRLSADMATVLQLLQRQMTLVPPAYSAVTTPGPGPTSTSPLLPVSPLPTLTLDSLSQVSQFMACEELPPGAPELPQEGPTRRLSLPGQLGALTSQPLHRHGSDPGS
T1 sequence (P08172 whole entry): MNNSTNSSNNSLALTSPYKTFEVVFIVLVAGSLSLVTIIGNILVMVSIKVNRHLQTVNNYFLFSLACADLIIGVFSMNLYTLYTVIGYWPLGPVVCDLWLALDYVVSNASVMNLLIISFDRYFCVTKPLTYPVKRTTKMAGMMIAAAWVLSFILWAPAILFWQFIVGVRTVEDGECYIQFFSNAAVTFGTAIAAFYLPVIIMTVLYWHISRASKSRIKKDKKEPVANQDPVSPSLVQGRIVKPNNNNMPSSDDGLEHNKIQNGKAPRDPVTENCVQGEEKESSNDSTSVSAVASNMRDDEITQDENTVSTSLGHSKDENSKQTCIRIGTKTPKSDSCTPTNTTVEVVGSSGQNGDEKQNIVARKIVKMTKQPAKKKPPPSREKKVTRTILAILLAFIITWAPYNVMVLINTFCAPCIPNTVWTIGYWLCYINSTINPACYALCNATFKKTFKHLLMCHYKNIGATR

IC50 ([1]; Homo sapiens, MV4-11, 168 h) | IC50 ([2]; Homo sapiens, OCI-AML-3, 168 h) | Ki [5] | IC50 [1] | IC50 [2] | IC50 [6] | SMILES | IC50 [3] | IC50 [4] | IC50 ([3]; Homo sapiens, HEL, 168 h)
– | – | 19 µM | 0.029 µM | 0.023 µM | – | CCN(C(=O)c1cc(F)ccc1-n1c(C)c(C(=O)C2CCN(C(=O)[C@H]3NC[C@@H]4C[C@@H]43)CC2)c2ccncc21)C(C)C (single isomer, unassigned) [Example 48-2] | > 10 µM | > 200 µM | –
0.029 µM | 0.037 µM | 30.7 µM | – | – | – | Cc1c(C(=O)C2CCN(C(=O)[C@H]3NC[C@@H]4C[C@@H]43)CC2)c2ccncc2n1-c1ccc(F)cc1C(=O)N(CC(F)(F)F)C(C)C (single isomer, unassigned) [Example 51-2] | > 10 µM | > 200 µM | –
– | 0.029 µM | 51.9 µM | 0.031 µM | – | – | Cc1c(C(=O)C2CCN(C(=O)[C@H]3NC[C@@H]4C[C@@H]43)CC2)c2ccncc2n1-c1ccc(F)cc1C(=O)N(C(C)C)C(C)C (single isomer, unassigned) [Example 55-2] | > 10 µM | 82.3 µM | –
0.097 µM | 0.126 µM | 0.8 µM | – | – | 5.2 µM | CC(C)N(C(=O)c1cc(F)ccc1-n1cc(C(=O)[C@H]2CCN(C(=O)[C@H]3N[C@@H]4CC[C@H]3C4)C2)c2ccncc21)C(C)C [Example 2, 2-(3-((S)-1-((1R,3S,4S)-2-Azabicyclo[2.2.1]heptane-3-carbonyl)pyrrolidine-3-carbonyl)-1H-pyrrolo[2,3-c]pyridin-1-yl)-5-fluoro-N,N-diisopropylbenzamide] | – | > 200 µM | > 10 µM
0.085 µM | 0.125 µM | 6.6 µM | – | – | > 100 µM | CC(C)N(C(=O)c1cc(F)ccc1-n1cc(C(=O)C2CN(C(=O)[C@H]3N[C@@H]4CC[C@H]3C4)C2)c2ccncc21)C(C)C [Example 5, 2-(3-(1-((1R,3S,4S)-2-Azabicyclo[2.2.1]heptane-3-carbonyl)azetidine-3-carbonyl)-1H-pyrrolo[2,3-c]pyridin-1-yl)-5-fluoro-N,N-diisopropylbenzamide] | – | > 200 µM | > 10 µM
0.072 µM | 0.115 µM | 14.4 µM | – | – | – | CC(C)N(C(=O)c1cc(F)ccc1-n1cc(C(=O)C2CN(C(=O)[C@H]3N[C@H]4C[C@@H]3[C@@H](F)C4)C2)c2ccncc21)C(C)C [Example 7, 5-Fluoro-2-(3-(1-((1S,3S,4S,5S)-5-fluoro-2-azabicyclo[2.2.1]heptane-3-carbonyl)azetidine-3-carbonyl)-1H-pyrrolo[2,3-c]pyridin-1-yl)-N,N-diisopropylbenzamide] | – | 150 µM | > 10 µM
0.024 µM | 0.024 µM | 10.5 µM | – | – | – | CC(C)c1ncccc1-c1cc(F)ccc1-n1cc(C(=O)C2CN(C(=O)[C@H]3N[C@@H]4CC[C@H]3C4)C2)c2ccncc21 [Example 10, (1-((1R,3S,4S)-2-Azabicyclo[2.2.1]heptane-3-carbonyl)azetidin-3-yl)(1-(4-fluoro-2-(2-isopropylpyridin-3-yl)phenyl)-1H-pyrrolo[2,3-c]pyridin-3-yl)methanone] | – | 79.1 µM | > 10 µM
0.029 µM | 0.051 µM | 0.2 µM | – | – | 1.1 µM | CC(C)N(C(=O)c1cc(F)ccc1-n1cc(C(=O)C2CCN(C(=O)[C@H]3N[C@@H]4CC[C@H]3C4)CC2)c2ccncc21)C(C)C [Example 16, 2-(3-(1-((1R,3S,4S)-2-Azabicyclo[2.2.1]heptane-3-carbonyl)piperidine-4-carbonyl)-1H-pyrrolo[2,3-c]pyridin-1-yl)-5-fluoro-N,N-diisopropylbenzamide] | – | 128 µM | > 10 µM
0.025 µM | – | 1.4 µM | – | – | 21.3 µM | CC(C)N(C(=O)c1cc(F)ccc1-n1cc(C(=O)C2CCN(C(=O)[C@H]3NC[C@@H]4C[C@@H]43)CC2)c2ccncc21)C(C)C [Example 19, 2-(3-(1-((1S,2S,5R)-3-Azabicyclo[3.1.0]hexane-2-carbonyl)piperidine-4-carbonyl)-1H-pyrrolo[2,3-c]pyridin-1-yl)-5-fluoro-N,N-diisopropylbenzamide] | – | 128 µM | > 10 µM
0.025 µM | – | 0.8 µM | – | – | 5.2 µM | CC(C)N(C(=O)c1cc(F)ccc1-n1cc(C(=O)C2CCN(C(=O)[C@H]3NC4CCC3CC4)CC2)c2ccncc21)C(C)C [Example 20, (S)-2-(3-(1-(2-Azabicyclo[2.2.2]octane-3-carbonyl)piperidine-4-carbonyl)-1H-pyrrolo[2,3-c]pyridin-1-yl)-5-fluoro-N,N-diisopropylbenzamide] | – | > 200 µM | > 10 µM
0.033 µM | 0.026 µM | 7.3 µM | – | – | 62.8 µM | CCN(C(=O)c1cc(F)ccc1-n1c(C)c(C(=O)C2CCN(C(=O)[C@H]3NC[C@@H]4C[C@@H]43)CC2)c2ccncc21)C(C)C [Example 47, 2-(3-(1-((1S,2S,5R)-3-Azabicyclo[3.1.0]hexane-2-carbonyl)piperidine-4-carbonyl)-2-methyl-1H-pyrrolo[2,3-c]pyridin-1-yl)-N-ethyl-5-fluoro-N-isopropylbenzamide] | – | 194 µM | > 10 µM

SMILES | IC50 ([1]; Homo sapiens, MV4-11, 168 h) | IC50 ([2]; Homo sapiens, OCI-AML-3, 168 h) | Ki [5] | IC50 [1] | IC50 [2] | IC50 [6] | IC50 [3] | IC50 [4] | IC50 ([3]; Homo sapiens, HEL, 168 h)
Cc1c(C(=O)C2CCN(C(=O)[C@@H]3CCC(C)(C)N3)CC2)c2ccncc2n1-c1ccc(F)cc1C(=O)N(C(C)C)C(C)C (single isomer, unassigned) [Compound 56-2] | 0.035 µM | 0.047 µM | > 100 µM | – | – | – | > 10 µM | 138 µM | –
Cc1c(C(=O)C2CCN(C(=O)[C@@H]3CCC4(CC4)N3)CC2)c2ccncc2n1-c1ccc(F)cc1C(=O)N1[C@H](C)COC[C@H]1C (single isomer, unassigned) [Example 58-2] | 0.035 µM | 0.035 µM | 4.2 µM | – | – | 8.6 µM | > 10 µM | – | –
